# Test results as given in patent publication US10004786B2 (Zealand Pharma A/S, priority 2009, dated 2018).
# Numbered stars: 1 amine (or outer) side, 2 acyl side, 3 side chain; on linkers, the order of the positions; unused ones are H or OH. Square brackets hold non-standard residues; d marks the D form. Side chains are listed from the residue outwards. Peptide text beside a SMILES is read from it. * marks the point of attachment. γGlu = O=C(O)[C@H](CCC(=O)[*:2])N[*:1]; Palmitoyl = CCCCCCCCCCCCCCCC(=O)*; Aib = CC(C)(N)C(=O)O
# Legend:
# [1] = Liver weight/body weight of C57BL/6J mice treated for 2 weeks; format: in vivo
# Description: Mice were treated twice daily s.c. with Cpd. 1 and Cpd. 11 (at two doses: 0.5 and 5 nmol/kg) or vehicle for 2 weeks. Throughout the study, body weights were recorded daily and used to administer the body weight-corrected doses of peptide. On the day of sacrifice, the liver was exposed, and weighed.
# [2] = Body weight after 21 days s.c. administration in long term high fat fed mice; format: in vivo; conditions: 21 days b.i.d. s.c., 10 nmol/kg, long term high fat-fed C57BL/6J mice; p<0.05
# Description: (§1) Male mice (Long term high fat fed C57Bl/6J, short term high fat fed C57Bl/6J and db/db) were acclimatized with free access to food and water. They were housed in groups of 5-6 in a light-, temperature-, and humidity-controlled room (12-hour light:12-hour dark cycle, lights On/Off at 2000/0800 hour; 24° C.; 50% relative humidity).
# (§2) The animals were injected s.c. with 100 μl vehicle (once a day) for a period of three days to acclimatize the animals to handling and injections. Blood samples were taken from the eye or from the tip of the tail. The animals were randomized before treatment.
# (§3) Mice were treated twice daily s.c. with GluGLP-1 agonist or vehicle (injection volume=2.5 ml/kg). Throughout the study, body weights were recorded daily and used to administer the body weight-corrected doses of peptide. Peptide solutions were prepared fresh immediately before dosing.
# Effect of 21 days s.c. administration of compound 11 on body weight was determined in long term high fat-fed C57BL/6J mice. C57Bl/6J male mice on high fat diet (HFD) were treated (b.i.d.; s.c.) with compound 11 (10 nmol/kg) or vehicle. Body weights were recorded daily and used to administer the body weight-corrected doses of peptide throughout the study. Data are shown as mean±SEM in FIG. 4.
# [3] = Plasma lipids after 3 weeks s.c. administration in 30 weeks high fat diet fed mice; format: in vivo, C57BL/6J mice; conditions: 10 nmol/kg twice daily s.c.
# Description: The assay is an enzymatic colorimetric method. In the presence of magnesium ions, dextran sulfate selectively forms water-soluble complexes with LDL, VLDLA and chylomicrons, which are resistant to PEG-modified enzymes. The HDL cholesterol is determined enzymatically by cholesterol esterase and cholesterol oxidase coupled with PEG to the amino groups. Cholesterol esters are broken down quantitatively to free cholesterol and fatty acids. HDL cholesterol is enzymatically oxidized to choles-4-en-3-one and H2O2, and the formed H2O2 is measured colorimetrically (Cobas®; Application note HDLC3).
# The direct determination of LDL takes advantage of the selective micellary solubilization of LDL by a nonionic detergent and the interaction of a sugar compound and lipoproteins (VLDL and chylomicrons). The combination of a sugar compound with detergent enables the selective determination of LDL in plasma. The test principle is the same as that of cholesterol and HDL, but due to the sugar and detergent only LDL-cholesterol esters are broken down to free cholesterol and fatty acids. Free cholesterol is then oxidized and the formed H2O2 is measured colorimetrically (Application note LDL_C, Cobas®).
# The effect was measured on LDL, HDL and triglycerids (CHO: Total Cholesterol; HDL: High Density Cholesterol; LDL: Low Density Cholesterol; TRIG: Triglycerides; HDL/LDL: Ratio between HDL and LDL).
# [4] = Oral glucose tolerance test after 21 days s.c. administration in long term high fat fed mice; format: in vivo; conditions: 10 nmol/kg, long term high fat-fed C57BL/6J mice, two way ANOVA
# Description: as §1, §2, §3
# Oral glucose tolerance tests (OGTT) were performed after subjecting the animals to a short fast. To prevent confounding food intake, the animals were kept fasted during the OGTTs. After peptide dosing an initial blood sample was taken. […] The whole blood glucose (BG) was measured at t=15 min, t=30 min, t=60 min, t=90 min and t=120 min.
# The BG concentration was analyzed by the immobilized glucose oxidase method using a drop of blood (<5 μl; Elite Autoanalyser, Bayer, Denmark) following the manufacturer's instructions. […]
# [5] = Body weight gain in high fat fed C57BL/6J mice (10 days); format: in vivo; conditions: 5 nmol/kg b.i.d. s.c., short term high fat-fed C57BL/6J mice
# Description: C57Bl/6J male mice, 6 weeks old, were acclimatized in their new environment for 4 weeks with free access to high fat diet (HFD) (D12492, Research Diet Inc., New Brunswick, USA) and water. The animals were injected s.c. with 100 μl vehicle for a period of three days to acclimatize the animals to handling and injections, prior to initiation of peptide treatment. […] Throughout the study, body weights were recorded daily and used to administer the body weight-corrected doses of peptide. All animals were sacrificed on the same day by cervical dislocation.
# C57Bl/6J male mice on high fat diet (HFD) were treated (b.i.d.; s.c.) (0.5 and 5 nmol/kg) or vehicle. Body weights were recorded daily and used to administer the body weight-corrected doses of peptide throughout the study. Data are shown as mean±SEM in FIG. 7.
# [6] = Pharmacokinetic screening in mouse plasma after subcutaneous administration; format: in vivo; conditions: sc, mice, 100 nmol/kg s.c., * = only two time points used for calculation
# Description: Mice were dosed 100 nmol/kg subcutaneously (s.c.). The mice were sacrificed and the blood collected at the following time points; 0.5, 2, 4, 6, 16 and 24 h. Plasma samples were analyzed using protein precipitation, followed by solid phase extraction (SPE) and liquid chromatography mass spectrometry (LC-MS).
# Pharmacokinetic profiles were determined for various acylated compounds.
# [7] = HbA1c in db/db mice after 28 days; format: in vivo; conditions: 4 weeks, 12.7 nmol/kg, P=0.03 Students t-test
# Description: as §1, §2
# Mice were treated twice daily s.c. with GluGLP-1 agonist or vehicle (injection volume=2.5 ml/kg). Throughout the study, body weights were recorded daily and used to administer the body weight-corrected doses of peptide. Peptide solutions were prepared fresh immediately before dosing. […]
# The HbA1c determination is based on Turbidimetric INhibition ImmunoAssay (TINIA) in which HbA1c in the sample reacts with anti-HbA1c to form soluble antigen-antibody complexes. Additions of polyhaptens react with excess anti-HbA1c antibodies to form an insoluble antibody-polyhapten complex, which can be measured turbidimetrically. Liberated hemoglobin in the hemolyzed sample is converted to a derivative having a characteristic absorption spectrum, which is measured bichromatically during the preincubation phases. […]
compound,measurement,setting,value
CCCCCCCCCCCCCCCC(=O)N[C@@H](CCC(=O)NCCCC[C@H](NC(=O)[C@H](CO)NC(=O)[C@H](CC(=O)O)NC(=O)[C@H](CC(C)C)NC(=O)[C@H](Cc1ccc(O)cc1)NC(=O)[C@H](CCCCN)NC(=O)[C@H](CO)NC(=O)[C@H](Cc1ccc(O)cc1)NC(=O)[C@H](CC(=O)O)NC(=O)[C@H](CO)NC(=O)[C@@H](NC(=O)[C@H](Cc1ccccc1)NC(=O)[C@@H](NC(=O)CNC(=O)[C@H](CCC(N)=O)NC(=O)C(C)(C)NC(=O)[C@@H](N)Cc1c[nH]cn1)[C@@H](C)O)[C@@H](C)O)C(=O)N[C@@H](C)C(=O)N[C@@H](C)C(=O)N[C@@H](Cc1c[nH]cn1)C(=O)N[C@@H](CC(=O)O)C(=O)N[C@@H](Cc1ccccc1)C(=O)N[C@H](C(=O)N[C@@H](CCC(=O)O)C(=O)N[C@@H](Cc1c[nH]c2ccccc12)C(=O)N[C@@H](CC(C)C)C(=O)N[C@@H](CC(C)C)C(=O)N[C@@H](CCCNC(=N)N)C(=O)N[C@@H](C)C(N)=O)C(C)C)C(=O)O [Compound 11] (H-H[Aib]QGTFTSDYSKYLDSK([γGlu-Palmitoyl])AAHDFVEWLLRA-NH2),"liver weight/body weight ratio, low dose",[1]; 0.5 nmol/kg twice daily s.c.,did not affect
same,"liver weight/body weight ratio, high dose",[1]; 5 nmol/kg twice daily s.c.,did not affect
same,change in liver size,"[1]; repeated treatment, C57 healthy control mice, compared with compound 1",do not give rise to change in liver size
same,body weight,[2],significantly decreased body weight
same,HDL,[3]; P<0.001,significantly decreased
same,LDL,[3]; P<0.001,significantly decreased
same,cholesterol (total),[3]; P<0.001,significantly decreased
same,triglycerides,[3]; P<0.05,significantly decreased
same,ratio HDL/LDL,[3]; p<0.001,increased significantly
same,oral glucose tolerance,[4],significantly improved glucose tolerance
same,"body weight gain, high dose",[5],significantly decreased body weight gain at the high dose
same,half-life,[6],4.9 h
same,ΔHbA1c (%) compared to vehicle,[7],decreased ΔHbA1c (%) significantly
